Source: patent US20240366582A1, “TREATMENT OF RAYNAUD'S DISEASE” (Aisa Pharma, Inc., priority 2020, published 2024)

Columns and labels:
[1] = system: Raynaud's Phenomenon (RP) attacks in participants with SSc-RP; experiment: Frequency of weekly RP attacks (symptomatic attacks / all attacks), patient diary, Phase 2a Part A; assay type: in vivo, human
Experimental: A randomized, placebo-controlled phase 2a study was performed and is in progress to assess the safety and efficacy of cilnidipine (10 mg and 20 mg) alone and in combination with 5 mg tadalafil, in participants with diagnosis of secondary Raynaud's disease.
Part A-Double-blind, Placebo-controlled, Parallel-group, Dose selection, will assess the safety and efficacy of two doses of cilnidipine (10 mg and 20 mg), alone and in combination with tadalafil. A total of 36 participants will be randomized to one of six pre-specified treatment arms. See Example 3 for data obtained in this phase of the study thus far, on 11 participants.
The Sponsor-developed participant-informed E-Diary has been and will be used in this study to record data. […]

[2] = system: Raynaud's Phenomenon (RP) attacks in participants with SSc-RP; experiment: Average duration of weekly RP attacks (symptomatic / all attacks), patient diary, Phase 2a Part A; assay type: in vivo, human; conditions: for Average Duration of Weekly RP Attacks (All Attacks), Baseline, Mean / Average Duration of Weekly RP Attacks (All Attacks), Baseline, Median / Average Duration of Weekly RP Attacks (All Attacks), Average Duration, Mean / Average Duration of Weekly RP Attacks (All Attacks), Average Duration, Median: ITT Population-Part A; for Average Duration of Weekly RP Attacks (All Attacks), Baseline, Mean / Average Duration of Weekly RP Attacks (All Attacks), Baseline, Median: last 7 days of screening period, before dosing; for Average Duration of Weekly RP Attacks (All Attacks), Average Duration, Mean / Average Duration of Weekly RP Attacks (All Attacks), Average Duration, Median: last 7 days of the dosing period
From the text: (§1) The Sponsor-developed participant-informed E-Diary has been and will be used in this study to record data. Participants have been or will be required to keep and fill the E-Diary daily as delineated in the SoAs ((FIG. 2 and FIG. 3A and/or FIG. 3B). • The relevant metrics measured by this tool daily are: • Study medication • SSc-RP symptoms (Reporting an attack including duration of attack) • Severity of the attack considering all symptoms of the attack e.g. tingling, numbness, pain, color changes (VAS 0-10 cm scale) • Participant's location at the time of the attack (inside home/outside home) • Selecting symptoms experienced during the attack (tingling, numbness, pain, color changes, other) • Pain rating during the attack (11-point Likert scale) • The RCS based on how much difficulty participants had with Raynaud's today, how many attacks the participant had, and how long they lasted. Participants will also be asked to consider how much pain, numbness, or other symptoms the Raynaud's caused in fingers (including painful sores), and how much the Raynaud's alone affected the use of hands today (VAS 0-10 cm scale). • The relevant metrics measured by this tool at the in-clinic visit (once in a Dosing Period) are: • Digital ulcer severity (VAS 0-10 cm scale)—Applicable only if participant has digital ulcers. • Scleroderma Health Assessment Questionnaire which includes Raynaud's VAS measuring participant quality of life over the past • Note: Digital ulcer severity (VAS 0-10 cm scale) and SHAQ scale can also be done on paper in-clinic, if necessary. Also, external temperature will be a feed into the E-Diary database based on participant's location.
The absolute change in average duration of weekly RP attacks from baseline to the end of each dosing period was and will be a secondary outcome variable. The sponsor-developed participant-informed diary was and will be used to record data. Average duration of weekly RP attacks is defined as the total duration of RP attacks divided by total number of RP attacks within the last 7 days of each dosing period. Total duration of RP attacks during the last 7 days of screening period divided by the total number of RP attacks will be used as baseline for the analysis of all periods. The variable will be calculated similar to frequency data as before.
The following data was actually obtained in accordance with the protocol and plan delineated in Examples 1 and 2. The accompanying data involved 11 patients out of the planned 76 patient study. The study was done in patients with scleroderma (systemic sclerosis) who had relatively frequent Raynaud symptoms as they needed to average at least one attack per day during a screening period of up to two weeks. In this first phase of this double-blind placebo-controlled, prospective randomized study, patients were treated in parallel and after meeting study criteria were randomized to receive either placebo, cilnidipine 10 mg daily, cilnidipine 20 mg daily, tadalafil 5 mg daily, cilnidipine 10 mg plus 5 mg of tadalafil, or cilnidipine 20 mg plus 5 mg of tadalafil.

[3] = system: Raynaud's Phenomenon (RP) attacks in participants with SSc-RP; experiment: Average severity of weekly RP attacks (VAS 0-10; symptomatic / all attacks), patient diary, Phase 2a Part A; assay type: in vivo, human; conditions: for Average Severity of Weekly Symptomatic RP Attacks, Mean: Pooled Cilnidipine 20 mg and Cilnidipine 20 mg + Tadalafil 5 mg, severity (0-10), ITT Population - Part A
From the text: as §1
The absolute change in average severity of weekly RP attacks (VAS 0-10 cm scale) from baseline to the end of each Dosing Period was and will be a secondary outcome variable. The sponsor-developed participant-informed diary will be used to record data. […] The variable will be calculated similar to frequency data as before. […]

[4] = in vivo; cited from earlier work
Nav 1.7 sodium channel = Nav 1.7 sodium channel (Homo sapiens, UniProt Q15858); conditions: see WO 2021/178903; cited from earlier work
Sequence of Nav 1.7 sodium channel (Q15858 whole entry): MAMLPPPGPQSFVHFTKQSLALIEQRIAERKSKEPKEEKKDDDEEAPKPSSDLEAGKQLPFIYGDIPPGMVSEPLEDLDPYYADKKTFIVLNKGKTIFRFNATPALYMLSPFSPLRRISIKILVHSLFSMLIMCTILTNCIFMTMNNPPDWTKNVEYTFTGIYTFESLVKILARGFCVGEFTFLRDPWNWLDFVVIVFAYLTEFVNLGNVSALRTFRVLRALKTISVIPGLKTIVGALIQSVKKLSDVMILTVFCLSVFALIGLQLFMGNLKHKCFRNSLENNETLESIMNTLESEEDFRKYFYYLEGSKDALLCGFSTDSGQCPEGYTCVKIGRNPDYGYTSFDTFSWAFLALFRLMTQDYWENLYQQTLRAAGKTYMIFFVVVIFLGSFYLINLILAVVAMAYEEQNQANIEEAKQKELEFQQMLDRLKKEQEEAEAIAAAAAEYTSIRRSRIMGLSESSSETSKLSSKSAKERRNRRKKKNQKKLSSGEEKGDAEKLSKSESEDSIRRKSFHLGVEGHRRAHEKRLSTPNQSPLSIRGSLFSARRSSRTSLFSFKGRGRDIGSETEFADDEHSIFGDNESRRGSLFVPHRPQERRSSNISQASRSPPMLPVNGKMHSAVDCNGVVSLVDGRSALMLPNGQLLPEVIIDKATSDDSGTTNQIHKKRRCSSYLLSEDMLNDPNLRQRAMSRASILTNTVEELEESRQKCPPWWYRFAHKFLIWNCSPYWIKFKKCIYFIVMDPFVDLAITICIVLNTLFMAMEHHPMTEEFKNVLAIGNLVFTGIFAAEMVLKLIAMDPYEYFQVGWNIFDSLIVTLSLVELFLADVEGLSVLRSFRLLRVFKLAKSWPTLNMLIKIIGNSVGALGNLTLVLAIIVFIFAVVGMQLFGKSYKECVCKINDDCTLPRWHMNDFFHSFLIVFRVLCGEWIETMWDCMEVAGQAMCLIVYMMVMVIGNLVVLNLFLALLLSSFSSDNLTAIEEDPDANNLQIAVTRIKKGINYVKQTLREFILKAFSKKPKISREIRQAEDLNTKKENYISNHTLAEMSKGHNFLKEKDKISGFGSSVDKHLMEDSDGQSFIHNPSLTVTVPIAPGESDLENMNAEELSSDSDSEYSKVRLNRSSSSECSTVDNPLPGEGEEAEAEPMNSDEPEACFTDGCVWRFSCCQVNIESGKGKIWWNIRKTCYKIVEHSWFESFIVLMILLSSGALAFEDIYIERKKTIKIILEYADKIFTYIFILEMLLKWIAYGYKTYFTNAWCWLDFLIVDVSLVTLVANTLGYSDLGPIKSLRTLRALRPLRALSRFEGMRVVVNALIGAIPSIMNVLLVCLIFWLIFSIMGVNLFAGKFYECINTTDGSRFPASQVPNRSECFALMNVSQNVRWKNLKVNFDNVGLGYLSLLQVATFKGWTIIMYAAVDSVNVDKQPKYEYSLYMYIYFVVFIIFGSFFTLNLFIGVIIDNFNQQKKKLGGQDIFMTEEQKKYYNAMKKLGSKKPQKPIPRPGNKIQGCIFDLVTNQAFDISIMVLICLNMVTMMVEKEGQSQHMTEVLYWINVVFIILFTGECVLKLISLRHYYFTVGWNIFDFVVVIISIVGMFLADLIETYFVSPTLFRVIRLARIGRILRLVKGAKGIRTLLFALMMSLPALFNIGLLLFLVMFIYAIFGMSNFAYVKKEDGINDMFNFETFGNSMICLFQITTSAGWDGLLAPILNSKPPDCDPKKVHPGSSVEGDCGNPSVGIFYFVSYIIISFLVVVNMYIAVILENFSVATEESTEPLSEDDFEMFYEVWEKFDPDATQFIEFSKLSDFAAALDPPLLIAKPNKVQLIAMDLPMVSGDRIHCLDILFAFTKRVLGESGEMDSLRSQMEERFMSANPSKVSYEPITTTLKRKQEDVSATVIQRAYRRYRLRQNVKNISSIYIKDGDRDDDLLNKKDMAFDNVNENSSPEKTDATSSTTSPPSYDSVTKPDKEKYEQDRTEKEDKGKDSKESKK

[5] = by Baseline RCS, first subgroup (RCS category not given)
[6] = by Baseline RCS, second subgroup (r96-r180, RCS category not given)

Structure (SMILES) | Average Duration of Weekly RP Attacks (All Attacks), Baseline, Mean ([2]; Excluding Outliers) | Average Duration of Weekly RP Attacks (All Attacks), Baseline, Median ([2]; Excluding Outliers) | Average Duration of Weekly RP Attacks (All Attacks), Baseline, Mean [2, 5] | Average Duration of Weekly RP Attacks (All Attacks), Baseline, Median [2, 5] | Average Duration of Weekly RP Attacks (All Attacks), Baseline, Mean [2] | Average Duration of Weekly RP Attacks (All Attacks), Baseline, Median [2] | other results
COCCOC(=O)C1=C(C)NC(C)=C(C(=O)OC/C=C/c2ccccc2)C1c1cccc([N+](=O)[O-])c1 (stereo not drawn) [Cilnidipine, cilnidipine, reference compound] | – | – | – | – | – | – | patients in whom average frequency of Raynaud's attacks decreased more than 25% ([1]; all cilnidipine and cilnidipine plus tadalafil treated patients together (n=7)): 6 of 7; change in weekly frequency of Raynaud attacks (in words) ([1]; cilnidipine and cilnidipine plus tadalafil treated patients (n=7), tadalafil alone, milder and more severe disease): decrease; change in duration of Raynaud attacks (in words) ([2]; cilnidipine or cilnidipine plus tadalafil (n=7), tadalafil monotherapy (n=2)): decrease greater than that seen in placebo treated patients; Average Severity of Weekly Symptomatic RP Attacks, Mean ([3]; Excluding Outliers): 3.40; Average Severity of Weekly Symptomatic RP Attacks, Mean [3]: 3.40; change in severity of attacks (in words) ([3]; cilnidipine monotherapy (n=3), cilnidipine plus tadalafil (n=4) vs tadalafil monotherapy (n=2)): 20 mg reducing severity more than 10 mg; Tmax (time to achieve maximal plasma concentrations) [4]: 2 h; activity against the Nav 1.7 sodium channel (Nav 1.7 sodium channel): has activity
CCOC(=O)C1=C(COCCN)NC(C)=C(C(=O)OC)C1c1ccccc1Cl (stereo not drawn) [amlodipine] | – | – | – | – | – | – | time to reach maximal plasma concentrations [4]: 10 h
COCCOC(=O)C1=C(C)NC(C)=C(C(=O)OC/C=C/c2ccccc2)C1c1cccc([N+](=O)[O-])c1 (stereo not drawn) [Pooled Cilnidipine] | 25.21 min | 25.00 min | 25.21 min | 25.00 min | – | – | Average Duration of Weekly RP Attacks (All Attacks), Average Duration, Mean ([2]; Excluding Outliers): 21.66 min; Average Duration of Weekly RP Attacks (All Attacks), Average Duration, Median ([2]; Excluding Outliers): 30.45 min; Average Duration of Weekly RP Attacks (All Attacks), Average Duration, Mean [2, 5]: 21.66 min; Average Duration of Weekly RP Attacks (All Attacks), Average Duration, Median [2, 5]: 30.45 min
COCCOC(=O)C1=C(C)NC(C)=C(C(=O)OC/C=C/c2ccccc2)C1c1cccc([N+](=O)[O-])c1 (stereo not drawn) [Cilnidipine 20 mg] | 17.81 min | 17.81 min | 17.81 min | 17.81 min | 17.81 min | 17.81 min | –
COCCOC(=O)C1=C(C)NC(C)=C(C(=O)OC/C=C/c2ccccc2)C1c1cccc([N+](=O)[O-])c1 (stereo not drawn) [Cilnidipine 10 mg] | 40.00 min | 40.00 min | 40.00 min | 40.00 min | 40.00 min | 40.00 min | –
CN1CC(=O)N2[C@H](c3ccc4c(c3)OCO4)c3[nH]c4ccccc4c3C[C@@H]2C1=O [Tadalafil 5 mg] | 10.92 min | 10.92 min | – | – | – | – | Average Duration of Weekly RP Attacks (All Attacks), Baseline, Mean [2, 6]: 320.46 min; Average Duration of Weekly RP Attacks (All Attacks), Baseline, Median [2, 6]: 320.46 min
